Test results published in patent US20110154874A1, “MIXTURE FOR THE TREATMENT OF UREA-CONTAINING FERTILIZERS” (FERTIVA GmbH, priority 2007, published 2011).
Several values for one entry are separate records, joined by “and”; a condition that tells them apart may be missing. Identical values can stand only once.

Experiments:
Chinese cabbage = details: in vivo
[1] = Storage test over 30 days, NBPT loss on treated granulated urea (HPLC analysis); type: physicochemical; details: active compound applied to urea
Description: In a further storage test over 30 days at 30° C. and an atmospheric humidity of 60%, the NBPT losses measured (HPLC analysis) were as indicated below. At the beginning of the storage test, the NBPT was applied in a concentration of 0.12% by weight, based on the fertilizer, in a solution having the composition indicated below. The carrier fertilizer used was granulated urea.

NC(N)=O [Urea]
Fresh mass of shoots 21 days after planting (Chinese cabbage): 14.3 g/pot and 20.05 g/pot and 11.65 g/pot

CN1CCCC1=O [N-methylpyrrolidone (NMP), N-methylpyrrolidone]
stabilizing action on the active compound [1]: no stabilizing action
